# Assay results reported in patent US8642317B2 (priority 2007, dated 2014).
# Test system: bacterial isolate 180507-1 (IDAC)
row,Molecule,degradation by the selected isolate (deepoxidation and/or deacylation)
1,CC(=O)OCC12CCC(C)=CC1OC1C(O)C(O)C2(C)C12CO2 (stereo not shown) [15-monoacetoxyscirpenol],degraded
2,4-diacetoxyscirpenol,degraded
3,CC1=C[C@H]2O[C@@H]3[C@H](O)[C@@H](O)[C@](C)([C@@]2(CO)C[C@@H]1OC(=O)CC(C)C)[C@]31CO1 [T-2 triol],degraded
4,CC(=O)O[C@@H]1C[C@]2(C)[C@@]3(CO)[C@H](O)C(=O)C(C)=C[C@H]3O[C@H]1[C@@]21CO1 [3-acetyldeoxynivalenol],degraded
5,CC1=C[C@H]2O[C@@H]3[C@H](O)[C@@H](O)[C@](C)([C@@]2(CO)[C@H](O)C1=O)[C@]31CO1 [nivalenol],degraded
6,CC(=O)OC[C@]12C[C@H](OC(=O)CC(C)C)C(C)=C[C@H]1O[C@@H]1[C@H](O)[C@@H](O)[C@@]2(C)[C@]12CO2 [HT-2 toxin],degraded
7,CC(=O)O[C@@H]1[C@@H](O)[C@H]2O[C@@H]3C=C(C)C(=O)[C@@H](O)[C@]3(CO)[C@]1(C)[C@]21CO1 [fusarenon X],degraded
8,CC(=O)OC[C@]12C[C@H](O)C(C)=C[C@H]1O[C@@H]1[C@H](O)[C@@H](OC(C)=O)[C@@]2(C)[C@]12CO2 [neosolaniol],degraded
9,CC(=O)OC[C@]12[C@H](O)C(=O)C(C)=C[C@H]1O[C@@H]1[C@H](O)C[C@@]2(C)[C@]12CO2 [15-acetyldeoxynivalenol],degraded

# Test system: bacterial isolate 180507-1 (IDAC)
# Type: cell-based
# Remark: another data set of the same source
row,Molecule,Reaction (sensitivity of the isolate)
1,Vancomysin,Sensitive
